Measurements from US20260365647A1, “AKT1 MODULATORS” (Alterome Therapeutics, Inc., priority 2022, published 2026).

Biological target: T1, AKT1-E17K (Homo sapiens, UniProt P31749, E17K)
T1 construct: host or cells: HEK-293 (ATCC CRL-1573)
Experiment: NanoBRET Target Engagement (TE) Assay
Type: cell-based
Procedure, shortened: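 Live cells transiently expressing NanoLuc-AKT1 E17K fusion, incubated 2 h with tracer and compound before substrate plus extracellular NanoLuc inhibitor were added. BRET read at 450/600 nm; EC50 from variable-slope sigmoidal fit of tracer displacement.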

T1 sequence (P31749 whole entry E17K): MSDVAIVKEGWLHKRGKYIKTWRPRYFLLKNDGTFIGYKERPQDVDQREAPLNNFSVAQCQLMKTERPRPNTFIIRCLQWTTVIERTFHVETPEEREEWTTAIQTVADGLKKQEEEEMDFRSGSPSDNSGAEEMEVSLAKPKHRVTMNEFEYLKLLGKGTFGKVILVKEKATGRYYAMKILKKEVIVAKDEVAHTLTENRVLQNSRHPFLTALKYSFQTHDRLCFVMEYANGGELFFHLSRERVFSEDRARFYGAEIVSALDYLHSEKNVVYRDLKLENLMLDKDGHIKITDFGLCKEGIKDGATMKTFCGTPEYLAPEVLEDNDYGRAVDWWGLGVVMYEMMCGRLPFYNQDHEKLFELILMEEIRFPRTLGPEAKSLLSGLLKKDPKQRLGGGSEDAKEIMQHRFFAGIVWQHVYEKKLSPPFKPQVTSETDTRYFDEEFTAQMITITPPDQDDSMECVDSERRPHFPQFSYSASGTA

Compound	IC50 [nM]
Nc1ncccc1-c1nc2ccc(-c3ccccc3)nc2n1-c1ccc(CN2CCCC(NC(=O)c3ccc(C=O)c(O)c3)CC2)cc1 (centres unmarked) [Example 116, N-(1-(4-(2-(2-aminopyridin-3-yl)-5-phenyl-3H-imidazo[4,5-b]pyridin-3-yl)benzyl)azepan-4-yl)-4-formyl-3-hydroxybenzamide]	60 to 600
Nc1ncccc1-c1nc2ccc(-c3ccccc3)nc2n1-c1ccc(CN2CCC3(CC2)CN(c2ccc(C=O)c(O)c2)C3)cc1 [Example 73, 4-(7-(4-(2-(2-Aminopyridin-3-yl)-5-phenyl-3H-imidazo[4,5-b]pyridin-3-yl)benzyl)-2,7-diazaspiro[3.5]nonan-2-yl)-2-hydroxybenzaldehyde]	60 to 600
Nc1ncccc1-c1nc2ccc(-c3ccccc3)nc2n1-c1ccc(CN2CCC(Nc3cccc(O)c3C=O)CC2)cc1 [Example 51, 2-((1-(4-(2-(2-Aminopyridin-3-yl)-5-phenyl-3H-imidazo[4,5-b]pyridin-3-yl)benzyl)piperidin-4-yl)amino)-6-hydroxybenzaldehyde]	60 to 600
C[C@@H]1CN(Cc2ccc(-n3c(-c4cccnc4N)nc4ccc(-c5ccccc5)nc43)cc2)CCN1c1ccc(C=O)c(O)c1 [Example 104, (R)-4-(4-(4-(2-(2-Aminopyridin-3-yl)-5-phenyl-3H-imidazo[4,5-b]pyridin-3-yl)benzyl)-2-methylpiperazin-1-yl)-2-hydroxybenzaldehyde]	60 to 600
N#Cc1ccccc1-c1ccc2nc(-c3cccnc3N)n(-c3ccc(CN4CCN(C(=O)c5ccc(C=O)c(O)c5)CC4)cc3)c2n1 [Example 37, 2-(2-(2-Aminopyridin-3-yl)-3-(4-((4-(4-formyl-3-hydroxybenzoyl)piperazin-1-yl)methyl)phenyl)-3H-imidazo[4,5-b]pyridin-5-yl)benzonitrile]	60 to 600
Nc1ncccc1-c1nc2ccc(-c3ccccc3)nc2n1-c1ccc(CN2CC[C@@]3(CCN(c4ccc(C=O)c(O)c4)C3)C2)cc1 [Example 100, (R)-4-(7-(4-(2-(2-Aminopyridin-3-yl)-5-phenyl-3H-imidazo[4,5-b]pyridin-3-yl)benzyl)-2,7-diazaspiro[4.4]nonan-2-yl)-2-hydroxybenzaldehyde]	60 to 600
Nc1ncccc1-c1nc2ccc(-c3ccccc3)nc2n1-c1ccc(CN2CCCCC(NC(=O)c3ccc(C=O)c(O)c3)C2)cc1 (centres unmarked) [Example 118, N-(1-(4-(2-(2-Aminopyridin-3-yl)-5-phenyl-3H-imidazo[4,5-b]pyridin-3-yl)benzyl)azepan-3-yl)-4-formyl-3-hydroxybenzamide]	> 600
Nc1ncccc1-c1nc2ccc(-c3ccccc3)nc2n1-c1ccc(CN2CC[C@@]3(CCN(C(=O)c4ccc(C=O)c(O)c4)C3)C2)cc1 [Example 99, (R)-4-(7-(4-(2-(2-aminopyridin-3-yl)-5-phenyl-3H-imidazo[4,5-b]pyridin-3-yl)benzyl)-2,7-diazaspiro[4.4]nonane-2-carbonyl)-2-hydroxybenzaldehyde]	60 to 600
Nc1ncccc1-c1nc2ccc(-c3ccccc3)nc2n1-c1ccc(CN2CCC3(CC2)CCN(C(=O)c2ccc(O)c(C=O)c2)CC3)cc1 [Example 77, 5-(9-(4-(2-(2-Aminopyridin-3-yl)-5-phenyl-3H-imidazo[4,5-b]pyridin-3-yl)benzyl)-3,9-diazaspiro[5.5]undecane-3-carbonyl)-2-hydroxybenzaldehyde]	60 to 600
Nc1ncccc1-c1nc2ccc(-c3ccccc3)nc2n1-c1ccc(CN2CCN(c3cc(O)c(C=O)cc3F)CC2)cc1 [Example 25, 4-(4-(4-(2-(2-Aminopyridin-3-yl)-5-phenyl-3H-imidazo[4,5-b]pyridin-3-yl)benzyl)piperazin-1-yl)-5-fluoro-2-hydroxybenzaldehyde]	15 to 60

Results, then the compound that gave them:

IC50 [nM]	Compound
15 to 60	Nc1ncccc1-c1nc2ccc(-c3ccccc3)nc2n1-c1ccc(CN2C[C@H]3CN(C(=O)c4ccc(O)c(C=O)c4)C[C@@H]3C2)cc1 [Example 135, 5-((3aS,6aS)-5-(4-(2-(2-Aminopyridin-3-yl)-5-phenyl-3H-imidazo[4,5-b]pyridin-3-yl)benzyl)octahydropyrrolo[3,4-c]pyrrole-2-carbonyl)-2-hydroxybenzaldehyde]
15 to 60	Nc1ncccc1-c1nc2ccc(-c3ccccc3)nc2n1-c1ccc(CN2C[C@@H]3C[C@H]2CN3C(=O)c2ccc(C=O)c(O)c2)cc1 [Example 122, 4-((1S,4S)-5-(4-(2-(2-Aminopyridin-3-yl)-5-phenyl-3H-imidazo[4,5-b]pyridin-3-yl)benzyl)-2,5-diazabicyclo[2.2.1]heptane-2-carbonyl)-2-hydroxybenzaldehyde]
< 15	Nc1ncccc1-c1nc2ccc(-c3ccccc3)nc2n1-c1ccc(CN2CC3(CC(NC(=O)c4ccc(O)c(C=O)c4)C3)C2)cc1 [Example 69, N-(2-(4-(2-(2-Aminopyridin-3-yl)-5-phenyl-3H-imidazo[4,5-b]pyridin-3-yl)benzyl)-2-azaspiro[3.3]heptan-6-yl)-3-formyl-4-hydroxybenzamide]
60 to 600	Nc1ncccc1-c1nc2ccc(-c3ccccc3)nc2n1-c1ccc(CN2CC3CCC2CN3C(=O)c2ccc(O)c(C=O)c2)cc1 (centres unmarked) [Example 126, 5-(5-(4-(2-(2-Aminopyridin-3-yl)-5-phenyl-3H-imidazo[4,5-b]pyridin-3-yl)benzyl)-2,5-diazabicyclo[2.2.2]octane-2-carbonyl)-2-hydroxybenzaldehyde]
60 to 600	Nc1ncccc1-c1nc2ccc(-c3ccccc3)nc2n1-c1ccc(CN2CC[C@]3(CCN(C(=O)c4ccc(O)c(C=O)c4)C3)C2)cc1 [Example 101, (S)-5-(7-(4-(2-(2-Aminopyridin-3-yl)-5-phenyl-3H-imidazo[4,5-b]pyridin-3-yl)benzyl)-2,7-diazaspiro[4.4]nonane-2-carbonyl)-2-hydroxybenzaldehyde]
60 to 600	Nc1ncccc1-c1nc2ccc(-c3ccccc3)nc2n1-c1ccc(CN2CCN(c3ccc(O)c(C=O)c3)CC2)cc1 [Example 10, 5-(4-(4-(2-(2-aminopyridin-3-yl)-5-phenyl-3H-imidazo[4,5-b]pyridin-3-yl)benzyl)piperazin-1-yl)-2-hydroxybenzaldehyde]
> 600	Nc1ncccc1-c1nc2ccc(-c3ccccc3)nc2n1-c1ccc(CN2CC3CCC(C2)N3c2ccc(C=O)c(O)c2)cc1 [Example 111, 4-(3-(4-(2-(2-Aminopyridin-3-yl)-5-phenyl-3H-imidazo[4,5-b]pyridin-3-yl)benzyl)-3,8-diazabicyclo[3.2.1]octan-8-yl)-2-hydroxybenzaldehyde]
15 to 60	Nc1ncccc1-c1nc2ccc(-c3ccccc3)nc2n1-c1ccc(CN2CC(NC(=O)c3ccc(O)c(C=O)c3)C2)cc1 [Example 61, N-(1-(4-(2-(2-Aminopyridin-3-yl)-5-phenyl-3H-imidazo[4,5-b]pyridin-3-yl)benzyl)azetidin-3-yl)-3-formyl-4-hydroxybenzamide]
60 to 600	Nc1ncccc1-c1nc2ccc(-c3ccccc3)nc2n1-c1ccc(CN2CCN(C(=O)c3ccc(O)c(C=O)c3)CC2)cc1 [Example 5, 5-(4-(4-(2-(2-Aminopyridin-3-yl)-5-phenyl-3H-imidazo[4,5-b]pyridin-3-yl)benzyl)piperazine-1-carbonyl)-2-hydroxybenzaldehyde]
60 to 600	Nc1ncccc1-c1nc2ccc(-c3ccccc3)nc2n1-c1ccc(CN2CCC3(CCN(C(=O)c4ccc(O)c(C=O)c4)CC3)C2)cc1 [Example 84, 5-(2-(4-(2-(2-Aminopyridin-3-yl)-5-phenyl-3H-imidazo[4,5-b]pyridin-3-yl)benzyl)-2,8-diazaspiro[4.5]decane-8-carbonyl)-2-hydroxybenzaldehyde]
